Reference: patent publication US8952024B2, “Herbicidal pyrimidone derivatives” (E I du Pont de Nemours and Company, priority 2009, dated 2015)

How the values were obtained:
Test in all cases: Test B pre-/postemergence plant response
Type in all cases: in vivo
Settings in all cases: Postemergence
[1] = system: woolly cupgrass (Eriochloa villosa)
Procedure, shortened: (§1)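 Greenhouse herbicide screen. Pre- and postemergence (1- to 4-leaf) spray of compound in solvent/surfactant mixture; loam–sand soil for pre, peat/vermiculite medium for post. Visual control rating 0–100 at 13 to 15 days after treatment.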

[2] = system: downy bromegrass (Bromus tectorum)
Procedure, shortened: as §1

[3] = system: large crabgrass (Digitaria sanguinalis)
Procedure, shortened: as §1

[4] = system: blackgrass (Alopecurus myosuroides)
Procedure, shortened: as §1

[5] = system: Italian ryegrass (Lolium multiflorum)
Procedure, shortened: as §1

[6] = system: bermudagrass (Cynodon dactylon)
Procedure, shortened: as §1

[7] = system: morningglory (Ipomoea coccinea)
Procedure, shortened: as §1

[8] = system: green foxtail (Setaria viridis)
Procedure, shortened: as §1

[9] = system: lambsquarters (Chenopodium album)
Procedure, shortened: as §1

[10] = system: Surinam grass (Brachiaria decumbens)
Procedure, shortened: as §1

[11] = system: giant foxtail (Setaria faberii)
Procedure, shortened: as §1

[12] = system: yellow nutsedge (Cyperus esculentus)
Procedure, shortened: as §1

corn (Zea mays) = system: corn (Zea mays)
Procedure, shortened: as §1

[13] = 31 g ai/ha, 0 to 100 scale (0 no effect, 100 complete control)
[14] = 62 g ai/ha, scale 0 to 100 (0 no effect, 100 complete control)
[15] = 125 g ai/ha, scale 0 to 100 (0 no effect, 100 complete control)
[16] = 250 g ai/ha, scale 0 to 100 (0 no effect, 100 complete control), 13 to 15 days
[17] = 125 g ai/ha, scale 0 (no effect) to 100 (complete control), 13 to 15 days

COCCn1c(-c2cccc(C)c2)ncc(C(=O)C2=C(O)C3CCC(C3)C2=O)c1=O (stereo not shown) [Compound 233]
Plant response rating, Cupgrass, Woolly [1, 13]: 80
Plant response rating, Cupgrass, Woolly [1, 14]: 85
Plant response rating, Cupgrass, Woolly [1, 15]: 100
Plant response rating, Cupgrass, Woolly [1, 16]: 100
Plant response rating, Bromegrass, Downy [2, 13]: 40
Plant response rating, Bromegrass, Downy [2, 14]: 40
Plant response rating, Bromegrass, Downy [2, 15]: 50
Plant response rating, Bromegrass, Downy [2, 16]: 60
Plant response rating, Crabgrass, Large [3, 13]: 80
Plant response rating, Crabgrass, Large [3, 14]: 90
Plant response rating, Crabgrass, Large [3, 15]: 98
Plant response rating, Crabgrass, Large [3, 16]: 100
Plant response rating, Blackgrass [4, 13]: 5
Plant response rating, Blackgrass [4, 14]: 30
Plant response rating, Blackgrass [4, 15]: 30
Plant response rating, Blackgrass [4, 16]: 50
Plant response rating, Ryegrass, Italian [5, 13]: 30
Plant response rating, Ryegrass, Italian [5, 14]: 45
Plant response rating, Ryegrass, Italian [5, 16]: 60
Plant response rating, Bermudagrass [6, 13]: 95
Plant response rating, Bermudagrass [6, 14]: 95
Plant response rating, Bermudagrass [6, 15]: 100
Plant response rating, Bermudagrass [6, 16]: 100
Plant response rating, Morningglory [7, 13]: 65
Plant response rating, Morningglory [7, 14]: 80
Plant response rating, Morningglory [7, 15]: 98
Plant response rating, Morningglory [7, 16]: 100
Plant response rating, Foxtail, Green [8, 13]: 85
Plant response rating, Foxtail, Green [8, 14]: 90
Plant response rating, Foxtail, Green [8, 15]: 95
Plant response rating, Foxtail, Green [8, 16]: 100
Plant response rating, Lambsquarters [9, 13]: 98
Plant response rating, Lambsquarters [9, 14]: 98
Plant response rating, Lambsquarters [9, 15]: 100
Plant response rating, Lambsquarters [9, 16]: 100
Plant response rating, Surinam Grass [10, 13]: 80
Plant response rating, Surinam Grass [10, 14]: 85
Plant response rating, Surinam Grass [10, 16]: 100
Plant response rating, Foxtail, Giant [11, 13]: 90
Plant response rating, Foxtail, Giant [11, 14]: 95
Plant response rating, Foxtail, Giant [11, 15]: 98
Plant response rating, Foxtail, Giant [11, 16]: 98
Plant response rating, Nutsedge, Yellow [12, 13]: 0
Plant response rating, Nutsedge, Yellow [12, 14]: 5
Plant response rating, Nutsedge, Yellow [12, 15]: 25
Plant response rating, Nutsedge, Yellow [12, 16]: 25
Plant response rating, Corn (corn (Zea mays); [13]): 30
Plant response rating, Corn (corn (Zea mays); [14]): 50
Plant response rating, Corn (corn (Zea mays); [15]): 85
Plant response rating, Corn (corn (Zea mays); [16]): 85

COCCn1c(-c2cccc(F)c2)ncc(C(=O)C2=C(O)C3CCC(C3)C2=O)c1=O (stereo not shown) [Compound 235]
Plant response rating, Cupgrass, Woolly [1, 13]: 95
Plant response rating, Cupgrass, Woolly [1, 14]: 100
Plant response rating, Cupgrass, Woolly [1, 15]: 100
Plant response rating, Cupgrass, Woolly [1, 16]: 100
Plant response rating, Bromegrass, Downy [2, 13]: 10
Plant response rating, Bromegrass, Downy [2, 14]: 30
Plant response rating, Bromegrass, Downy [2, 15]: 50
Plant response rating, Bromegrass, Downy [2, 16]: 85
Plant response rating, Crabgrass, Large [3, 13]: 98
Plant response rating, Crabgrass, Large [3, 14]: 98
Plant response rating, Crabgrass, Large [3, 15]: 98
Plant response rating, Crabgrass, Large [3, 16]: 100
Plant response rating, Blackgrass [4, 13]: 45
Plant response rating, Blackgrass [4, 14]: 60
Plant response rating, Blackgrass [4, 15]: 70
Plant response rating, Ryegrass, Italian [5, 13]: 30
Plant response rating, Ryegrass, Italian [5, 14]: 30
Plant response rating, Ryegrass, Italian [5, 16]: 60
Plant response rating, Bermudagrass [6, 13]: 98
Plant response rating, Bermudagrass [6, 14]: 98
Plant response rating, Bermudagrass [6, 15]: 100
Plant response rating, Bermudagrass [6, 16]: 100
Plant response rating, Morningglory [7, 13]: 95
Plant response rating, Morningglory [7, 14]: 98
Plant response rating, Morningglory [7, 15]: 100
Plant response rating, Morningglory [7, 16]: 100
Plant response rating, Foxtail, Green [8, 13]: 90
Plant response rating, Foxtail, Green [8, 14]: 90
Plant response rating, Foxtail, Green [8, 15]: 95
Plant response rating, Foxtail, Green [8, 16]: 98
Plant response rating, Lambsquarters [9, 13]: 98
Plant response rating, Lambsquarters [9, 14]: 100
Plant response rating, Lambsquarters [9, 15]: 100
Plant response rating, Lambsquarters [9, 16]: 100
Plant response rating, Surinam Grass [10, 13]: 80
Plant response rating, Surinam Grass [10, 14]: 90
Plant response rating, Surinam Grass [10, 16]: 100
Plant response rating, Foxtail, Giant [11, 13]: 98
Plant response rating, Foxtail, Giant [11, 14]: 100
Plant response rating, Foxtail, Giant [11, 15]: 100
Plant response rating, Foxtail, Giant [11, 16]: 100
Plant response rating, Nutsedge, Yellow [12, 13]: 45
Plant response rating, Nutsedge, Yellow [12, 14]: 45
Plant response rating, Nutsedge, Yellow [12, 15]: 55
Plant response rating, Nutsedge, Yellow [12, 16]: 60
Plant response rating, Corn (corn (Zea mays); [13]): 95
Plant response rating, Corn (corn (Zea mays); [14]): 100
Plant response rating, Corn (corn (Zea mays); [15]): 100
Plant response rating, Corn (corn (Zea mays); [16]): 100

CCCCn1c(-c2cccc(F)c2)ncc(C(=O)C2=C(O)C3CCC(C3)C2=O)c1=O (stereo not shown) [Compound 237]
Plant response rating, Cupgrass, Woolly [1, 13]: 100
Plant response rating, Cupgrass, Woolly [1, 14]: 100
Plant response rating, Cupgrass, Woolly [1, 17]: 100
Plant response rating, Cupgrass, Woolly [1, 16]: 100
Plant response rating, Bromegrass, Downy [2, 13]: 30
Plant response rating, Bromegrass, Downy [2, 14]: 45
Plant response rating, Bromegrass, Downy [2, 17]: 90
Plant response rating, Bromegrass, Downy [2, 16]: 95
Plant response rating, Crabgrass, Large [3, 13]: 95
Plant response rating, Crabgrass, Large [3, 14]: 98
Plant response rating, Crabgrass, Large [3, 17]: 100
Plant response rating, Crabgrass, Large [3, 16]: 100
Plant response rating, Blackgrass [4, 13]: 50
Plant response rating, Blackgrass [4, 14]: 70
Plant response rating, Blackgrass [4, 17]: 70
Plant response rating, Blackgrass [4, 16]: 80
Plant response rating, Ryegrass, Italian [5, 13]: 50
Plant response rating, Ryegrass, Italian [5, 14]: 50
Plant response rating, Ryegrass, Italian [5, 17]: 60
Plant response rating, Ryegrass, Italian [5, 16]: 60
Plant response rating, Bermudagrass [6, 13]: 98
Plant response rating, Bermudagrass [6, 14]: 98
Plant response rating, Bermudagrass [6, 17]: 100
Plant response rating, Bermudagrass [6, 16]: 100
Plant response rating, Morningglory [7, 13]: 85
Plant response rating, Morningglory [7, 14]: 95
Plant response rating, Morningglory [7, 17]: 100
Plant response rating, Morningglory [7, 16]: 100
Plant response rating, Foxtail, Green [8, 13]: 80
Plant response rating, Foxtail, Green [8, 14]: 90
Plant response rating, Foxtail, Green [8, 17]: 95
Plant response rating, Foxtail, Green [8, 16]: 95
Plant response rating, Lambsquarters [9, 13]: 95
Plant response rating, Lambsquarters [9, 14]: 100
Plant response rating, Lambsquarters [9, 17]: 100
Plant response rating, Lambsquarters [9, 16]: 100
Plant response rating, Surinam Grass [10, 13]: 85
Plant response rating, Surinam Grass [10, 14]: 98
Plant response rating, Surinam Grass [10, 17]: 100
Plant response rating, Surinam Grass [10, 16]: 100
Plant response rating, Foxtail, Giant [11, 13]: 98
Plant response rating, Foxtail, Giant [11, 14]: 98
Plant response rating, Foxtail, Giant [11, 17]: 98
Plant response rating, Foxtail, Giant [11, 16]: 100
Plant response rating, Nutsedge, Yellow [12, 13]: 20
Plant response rating, Nutsedge, Yellow [12, 14]: 35
Plant response rating, Nutsedge, Yellow [12, 17]: 45
Plant response rating, Nutsedge, Yellow [12, 16]: 45
Plant response rating, Corn (corn (Zea mays); [13]): 85
Plant response rating, Corn (corn (Zea mays); [14]): 98
Plant response rating, Corn (corn (Zea mays); [17]): 100
Plant response rating, Corn (corn (Zea mays); [16]): 100
